The values that follow come from patent US9289403B2, “Use of modafinil to treat spasticity” (The Board of Trustees of the University of Arizona, priority 2007, dated 2016).

Entries after “also recorded” stand apart in the source; their conditions may differ.

Assay [1] relates to H-reflex (hyper-reflexia) in spinally transected rats. As to the kind of experiment: H-reflex frequency-dependent depression in spinally transected rats. As to conditions: no exercise, 3 mg/Kg/day modafinil p.o. for 30 days, measured 30 days after transection, compared with Tx-30, MBET 30 and control. It is filed as in vivo, rat. The procedure: Adult female Sprague-Dawley rats (Harlan, 200-250 g, n=40) underwent a lower thoracic laminectomy under ketamine (60 mg/kg, i.m.) and xylazine (10 mg/kg, i.m.) anesthesia. A complete transection (Tx) of the spinal cord was made by aspiration and the transected ends of the cord retracted, producing a 2-3 mm cavity. Gelfoam was inserted into the cavity to facilitate hemostasis and the dura was closed over the Tx site. Muscle and skin were sutured in separate layers, and animals were provided with dextrose-saline (5%, 1 ml/100 g body weight, s.c.) to replace fluid lost during the surgical procedure. […] Animals were monitored for signs of urinary tract infection, and treatment with Baytril (enroflaxin 0.2 mg/day, i.m. for 10 days) was instituted as needed. […]
Stimulation of the tibial nerve under the calcaneal tendon produced two responses, an early M-wave (2 ms latency), produced by direct activation of motoneuronal axons in the tibial nerve, and a later H-reflex (8 ms latency), produced by activation of muscle afferents in the tibial nerve, which synapse monosynaptically on plantar motoneurons. The degree of stimulation that induced frequency-dependent depression of the H-reflex was determined. […] The change in the response at various frequencies was calculated as the percent of the response at 0.2 Hz in order to determine depression of the H-reflex as a function of stimulation frequency. […]

Assay [2] relates to cortical cells, inferior olivary cells and thalamic reticular cells. The following applies: cited from earlier work.

On to `NC(=O)C[S+]([O-])C(c1ccccc1)c1ccccc1` (centres unmarked) [modafinil], for which the “H-reflex amplitude at stimulation frequencies from 0.2 to 10 Hz (habituation / hyper-reflexia)” value in assay [1] was “as effective as passive exercise in normalizing exaggerated reflexes; also recorded: decreased (normalized) the H-reflex amplitude to the same extent as 30 days of exercise; also recorded: the reflexes were normalized; also recorded: effective in reducing hyper-reflexia after spinal transection”. Moreover, in assay [2], the electrical coupling entry is on record as “increases electrical coupling”.
